Reference: ChEMBL document CHEMBL6120999, “Total Synthesis and Anti-Inflammatory Activity of Tectoridin and Related Isoflavone Glucosides” (J Nat Prod, 2025)
The source made the active and inactive calls. No cut-off for these calls is given here.

Legend:
RAW264.7 [1] = test: Cytotoxicity against mouse RAW264.7 cells assessed as effect on cell viability at 50 uM measured after 24 hrs by CCK-8 assay; assay type: toxicity, cell-based; settings: raw264.7, 24 h
RAW264.7 [2] = test: Anti-inflammatory activity in mouse RAW264.7 cells assessed as inhibition of LPS-induced NO production at 25 to 50 uM preincubated for 1 hr followed by LPS stimulation for 24 hrs by Griess reagent assay; assay type: functional, cell-based; settings: dose 25-50 µM, time 25.0 hrs
RAW264.7 [3] = test: Anti-inflammatory activity against LPS-induced mouse RAW264.7 cells assessed as effect on TNF-alpha gene expression at 50 uM treated for 24 hrs by RT-qPCR analysis; assay type: functional, cell-based
RAW264.7 [4] = test: Anti-inflammatory activity against LPS-induced mouse RAW264.7 cells assessed as change in IL-6 gene expression at 50 uM treated for 24 hrs by RT-qPCR analysis; assay type: functional, cell-based
RAW264.7 [5] = test: Anti-inflammatory activity against LPS-induced mouse RAW264.7 cells assessed as reduction in IL-1beta gene expression at 50 uM treated for 24 hrs by RT-qPCR analysis relative to control; assay type: functional; design: scale not given: the % may be the effect or the level left
RAW264.7 [6] = test: Anti-inflammatory activity against LPS-induced mouse RAW264.7 cells assessed as reduction in IL-1beta gene expression at 50 uM treated for 24 hrs by RT-qPCR analysis; assay type: functional, cell-based
RAW264.7 [7] = test: Anti-inflammatory activity in mouse RAW264.7 cells assessed as inhibition of LPS-induced NO production preincubated for 1 hr followed by LPS stimulation for 24 hrs by Griess reagent assay; assay type: functional, cell-based; settings: for Activity: time 25.0 hrs
RAW264.7 [8] = test: Anti-inflammatory activity in mouse RAW264.7 cells assessed as reduction in LPS-induced NO production at 50 uM preincubated for 1 hr followed by LPS stimulation for 24 hrs by Griess reagent assay relative to control; assay type: functional; design: scale not given: the % may be the effect or the level left; settings: time 25 hrs
RAW264.7 [9] = test: Anti-inflammatory activity against LPS-induced mouse RAW264.7 cells assessed as decrease in TNF-alpha gene expression by RT-qPCR analysis; assay type: functional, cell-based; settings: dose 10-50 µM
RAW264.7 [10] = test: Anti-inflammatory activity against LPS-induced mouse RAW264.7 cells assessed as reduction in TNF-alpha gene expression at 50 uM treated for 24 hrs by RT-qPCR analysis relative to control; assay type: functional; design: scale not given: the % may be the effect or the level left
RAW264.7 [11] = test: Anti-inflammatory activity against LPS-induced mouse RAW264.7 cells assessed as decrease in IL-6 gene expression at 50 uM treated for 24 hrs by RT-qPCR analysis relative to control; assay type: functional; design: scale not given: the % may be the effect or the level left
RAW264.7 [12] = test: Anti-inflammatory activity against LPS-induced mouse RAW264.7 cells assessed as decrease in IL-6 gene expression by RT-qPCR analysis; assay type: functional, cell-based; settings: dose 10-50 µM
RAW264.7 [13] = test: Anti-inflammatory activity against LPS-induced mouse RAW264.7 cells assessed as decrease in IL-1beta gene expression by RT-qPCR analysis; assay type: functional, cell-based; settings: dose 10-50 µM
RAW264.7 [14] = test: Anti-inflammatory activity against LPS-induced mouse RAW264.7 cells assessed as inhibition in TNF-alpha release at 50 uM by ELISA; assay type: functional, cell-based
RAW264.7 [15] = test: Anti-inflammatory activity against LPS-induced mouse RAW264.7 cells assessed as inhibition in IL-6 release at 50 uM by ELISA; assay type: functional, cell-based

SMILES	Activity (RAW264.7 [1])	Activity (RAW264.7 [2])	Activity (RAW264.7 [3])	Activity (RAW264.7 [4])	Activity (RAW264.7 [5]) [%]	Activity (RAW264.7 [6])	IC50 (RAW264.7 [7]) [µM]	Activity (RAW264.7 [7])	Activity (RAW264.7 [8]) [%]	Activity (RAW264.7 [9])	Activity (RAW264.7 [10]) [%]	Activity (RAW264.7 [11]) [%]	Activity (RAW264.7 [12])	Activity (RAW264.7 [13])	Activity (RAW264.7 [14])	Activity (RAW264.7 [15])
COc1cc(C(=O)OC[C@H]2O[C@@H](Oc3cc4occ(-c5ccc(O)cc5)c(=O)c4c(O)c3OC)[C@H](O)[C@@H](O)[C@@H]2O)ccc1O	Non-toxic	inactive	Not active; Increase In Tnf-Alpha Gene Expression Observed	Not active; Increase In Il-6 Gene Expression Observed	4.1	–	–	–	–	–	–	–	–	–	–	–
COc1c(O[C@@H]2O[C@H](CO)[C@@H](O)[C@H](O)[C@H]2O)cc2occ(-c3ccc(O[C@@H]4O[C@H](CO)[C@@H](O)[C@H](O)[C@H]4O)cc3)c(=O)c2c1O	Non-toxic	inactive	inactive	inactive	–	Not active; Increase In Il-1Beta Gene Expression Observed	–	–	–	–	–	–	–	–	–	–
COc1c(O[C@@H]2O[C@H](CO)[C@@H](O)[C@H](O)[C@H]2O)cc(O)c2c(=O)c(-c3ccc(O)cc3)coc12	Non-toxic	inactive	inactive	inactive	14.4	–	–	–	–	–	–	–	–	–	–	–
COc1c(O)cc(O)c2c(=O)c(-c3ccc(O)cc3)coc12 [PSI-TECTORIGENIN]	Non-toxic	–	–	–	61	–	26.8	Dose-dependent-effect	~100	Dose-dependent-effect	46.3	56	Dose-dependent-effect	Dose-dependent-effect	Active	Active
COc1c(O[C@@H]2O[C@H](CO)[C@@H](O)[C@H](O)[C@H]2O)cc2occ(-c3ccc(O)cc3)c(=O)c2c1O [TECTORIDIN]	Non-toxic	inactive	inactive	inactive	31.2	–	–	–	–	–	–	–	–	–	–	–
COc1c(O)cc2occ(-c3ccc(O)cc3)c(=O)c2c1O [TECTORIGENIN]	Non-toxic	–	–	–	90.8	–	51.7	Dose-dependent-effect	48.4	Dose-dependent-effect	40	87.8	Dose-dependent-effect	Dose-dependent-effect	Active	Active
